Results as given in article PMC10176470, “Engaging a Non-catalytic Cysteine Residue Drives Potent and Selective Inhibition of Caspase-6” (Journal of the American Chemical Society, 2023).
Like-named read-outs stand apart in the source and are kept apart here.

Legend:
Format in all cases: cell-based
[1] = target: T1, proteins of HEK293T cells transiently overexpressing caspase-6 (Homo sapiens, UniProt P00505)
T1 sequence (P00505 30-430): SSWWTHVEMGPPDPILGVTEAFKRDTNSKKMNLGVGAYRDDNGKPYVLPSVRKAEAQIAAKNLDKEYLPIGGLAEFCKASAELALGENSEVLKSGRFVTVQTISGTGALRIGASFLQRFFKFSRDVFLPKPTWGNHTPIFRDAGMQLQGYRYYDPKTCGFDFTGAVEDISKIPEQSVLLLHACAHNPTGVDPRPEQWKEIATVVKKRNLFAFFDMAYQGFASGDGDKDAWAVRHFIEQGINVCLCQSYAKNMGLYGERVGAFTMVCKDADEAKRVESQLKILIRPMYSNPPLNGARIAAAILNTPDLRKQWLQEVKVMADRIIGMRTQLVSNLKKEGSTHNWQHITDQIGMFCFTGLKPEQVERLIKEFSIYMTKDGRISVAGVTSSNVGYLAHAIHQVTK

[2] = target: proteins of HEK293T cells transiently overexpressing caspase-6 (Homo sapiens, UniProt P06733); conditions: protein ENO1 (P06733)
proteins of HEK293T cells transiently overexpressing caspase-6 (Homo sapiens, UniProt P06733), sequence (P06733 whole entry): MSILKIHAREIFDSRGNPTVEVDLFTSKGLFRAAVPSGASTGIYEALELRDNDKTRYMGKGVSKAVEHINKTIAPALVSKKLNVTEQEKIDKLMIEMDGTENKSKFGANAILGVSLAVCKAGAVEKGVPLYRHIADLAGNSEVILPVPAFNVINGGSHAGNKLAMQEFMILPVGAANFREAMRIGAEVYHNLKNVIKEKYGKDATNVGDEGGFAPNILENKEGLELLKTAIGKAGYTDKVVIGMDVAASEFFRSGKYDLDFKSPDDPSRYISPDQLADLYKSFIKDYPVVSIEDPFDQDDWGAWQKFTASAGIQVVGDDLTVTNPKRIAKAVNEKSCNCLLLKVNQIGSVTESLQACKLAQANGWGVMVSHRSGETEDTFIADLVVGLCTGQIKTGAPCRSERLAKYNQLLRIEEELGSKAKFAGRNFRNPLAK

[3] = target: proteins of HEK293T cells transiently overexpressing caspase-6 (Homo sapiens, UniProt P07900); conditions: exp_ref Probe; protein HSP90AA1 (P07900); analysis C6
[4] = target: proteins of HEK293T cells transiently overexpressing caspase-6 (Homo sapiens, UniProt P13010); conditions: protein XRCC5 (P13010)
proteins of HEK293T cells transiently overexpressing caspase-6 (Homo sapiens, UniProt P13010), sequence (P13010 whole entry): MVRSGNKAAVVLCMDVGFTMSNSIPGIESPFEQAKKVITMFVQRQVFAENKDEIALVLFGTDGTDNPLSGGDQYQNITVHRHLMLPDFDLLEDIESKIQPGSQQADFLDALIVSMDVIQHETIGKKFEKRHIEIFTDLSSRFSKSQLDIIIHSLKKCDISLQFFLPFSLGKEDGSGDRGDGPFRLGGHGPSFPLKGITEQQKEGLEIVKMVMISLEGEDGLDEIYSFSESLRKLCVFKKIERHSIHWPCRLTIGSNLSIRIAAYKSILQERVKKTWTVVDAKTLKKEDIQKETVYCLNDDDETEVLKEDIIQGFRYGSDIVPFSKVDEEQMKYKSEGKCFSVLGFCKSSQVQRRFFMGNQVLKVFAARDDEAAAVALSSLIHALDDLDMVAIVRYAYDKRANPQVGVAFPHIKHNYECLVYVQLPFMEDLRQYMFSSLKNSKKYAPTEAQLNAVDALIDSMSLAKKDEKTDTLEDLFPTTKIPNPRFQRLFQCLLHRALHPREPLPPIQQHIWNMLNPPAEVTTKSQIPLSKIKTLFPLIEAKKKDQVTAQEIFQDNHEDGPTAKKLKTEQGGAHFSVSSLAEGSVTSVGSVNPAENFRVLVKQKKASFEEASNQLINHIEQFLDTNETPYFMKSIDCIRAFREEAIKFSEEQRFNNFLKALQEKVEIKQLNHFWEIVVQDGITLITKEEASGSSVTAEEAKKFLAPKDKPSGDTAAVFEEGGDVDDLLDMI

[5] = target: proteins of HEK293T cells transiently overexpressing caspase-6 (Homo sapiens, UniProt P20700); conditions: exp_ref Probe; protein LMNB1 (P20700); analysis C6
[6] = target: proteins of HEK293T cells transiently overexpressing caspase-6 (Homo sapiens, UniProt P31943); conditions: exp_ref Probe; protein HNRNPH1 (P31943); analysis C6
[7] = target: proteins of HEK293T cells transiently overexpressing caspase-6 (Homo sapiens, UniProt P33991); conditions: exp_ref Probe; protein MCM4 (P33991); analysis C6
[8] = target: proteins of HEK293T cells transiently overexpressing caspase-6 (Homo sapiens, UniProt P37837); conditions: Probe; protein TALDO1 P37837
[9] = target: proteins of HEK293T cells transiently overexpressing caspase-6 (Homo sapiens, UniProt P39687); conditions: exp_ref Probe; protein ANP32A (P39687); analysis C6
[10] = target: proteins of HEK293T cells transiently overexpressing caspase-6 (Homo sapiens, UniProt P46782); conditions: protein RPS5 (P46782)
[11] = target: proteins of HEK293T cells transiently overexpressing caspase-6 (Homo sapiens, UniProt P52597); conditions: Probe; protein HNRNPF P52597
[12] = target: proteins of HEK293T cells transiently overexpressing caspase-6 (Homo sapiens, UniProt P61978); conditions: protein HNRNPK (P61978)
[13] = target: proteins of HEK293T cells transiently overexpressing caspase-6 (Homo sapiens, UniProt Q00765); conditions: protein REEP5 (Q00765)
proteins of HEK293T cells transiently overexpressing caspase-6 (Homo sapiens, UniProt Q00765), sequence (Q00765 whole entry): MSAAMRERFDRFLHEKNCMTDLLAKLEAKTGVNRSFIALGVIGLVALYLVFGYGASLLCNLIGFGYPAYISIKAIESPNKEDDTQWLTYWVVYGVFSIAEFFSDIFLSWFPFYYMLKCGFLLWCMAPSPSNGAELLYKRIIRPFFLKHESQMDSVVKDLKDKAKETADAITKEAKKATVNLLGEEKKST

[14] = target: proteins of HEK293T cells transiently overexpressing caspase-6 (Homo sapiens, UniProt Q01082); conditions: Probe; protein SPTBN1 Q01082
proteins of HEK293T cells transiently overexpressing caspase-6 (Homo sapiens, UniProt Q01082), sequence (Q01082 whole entry): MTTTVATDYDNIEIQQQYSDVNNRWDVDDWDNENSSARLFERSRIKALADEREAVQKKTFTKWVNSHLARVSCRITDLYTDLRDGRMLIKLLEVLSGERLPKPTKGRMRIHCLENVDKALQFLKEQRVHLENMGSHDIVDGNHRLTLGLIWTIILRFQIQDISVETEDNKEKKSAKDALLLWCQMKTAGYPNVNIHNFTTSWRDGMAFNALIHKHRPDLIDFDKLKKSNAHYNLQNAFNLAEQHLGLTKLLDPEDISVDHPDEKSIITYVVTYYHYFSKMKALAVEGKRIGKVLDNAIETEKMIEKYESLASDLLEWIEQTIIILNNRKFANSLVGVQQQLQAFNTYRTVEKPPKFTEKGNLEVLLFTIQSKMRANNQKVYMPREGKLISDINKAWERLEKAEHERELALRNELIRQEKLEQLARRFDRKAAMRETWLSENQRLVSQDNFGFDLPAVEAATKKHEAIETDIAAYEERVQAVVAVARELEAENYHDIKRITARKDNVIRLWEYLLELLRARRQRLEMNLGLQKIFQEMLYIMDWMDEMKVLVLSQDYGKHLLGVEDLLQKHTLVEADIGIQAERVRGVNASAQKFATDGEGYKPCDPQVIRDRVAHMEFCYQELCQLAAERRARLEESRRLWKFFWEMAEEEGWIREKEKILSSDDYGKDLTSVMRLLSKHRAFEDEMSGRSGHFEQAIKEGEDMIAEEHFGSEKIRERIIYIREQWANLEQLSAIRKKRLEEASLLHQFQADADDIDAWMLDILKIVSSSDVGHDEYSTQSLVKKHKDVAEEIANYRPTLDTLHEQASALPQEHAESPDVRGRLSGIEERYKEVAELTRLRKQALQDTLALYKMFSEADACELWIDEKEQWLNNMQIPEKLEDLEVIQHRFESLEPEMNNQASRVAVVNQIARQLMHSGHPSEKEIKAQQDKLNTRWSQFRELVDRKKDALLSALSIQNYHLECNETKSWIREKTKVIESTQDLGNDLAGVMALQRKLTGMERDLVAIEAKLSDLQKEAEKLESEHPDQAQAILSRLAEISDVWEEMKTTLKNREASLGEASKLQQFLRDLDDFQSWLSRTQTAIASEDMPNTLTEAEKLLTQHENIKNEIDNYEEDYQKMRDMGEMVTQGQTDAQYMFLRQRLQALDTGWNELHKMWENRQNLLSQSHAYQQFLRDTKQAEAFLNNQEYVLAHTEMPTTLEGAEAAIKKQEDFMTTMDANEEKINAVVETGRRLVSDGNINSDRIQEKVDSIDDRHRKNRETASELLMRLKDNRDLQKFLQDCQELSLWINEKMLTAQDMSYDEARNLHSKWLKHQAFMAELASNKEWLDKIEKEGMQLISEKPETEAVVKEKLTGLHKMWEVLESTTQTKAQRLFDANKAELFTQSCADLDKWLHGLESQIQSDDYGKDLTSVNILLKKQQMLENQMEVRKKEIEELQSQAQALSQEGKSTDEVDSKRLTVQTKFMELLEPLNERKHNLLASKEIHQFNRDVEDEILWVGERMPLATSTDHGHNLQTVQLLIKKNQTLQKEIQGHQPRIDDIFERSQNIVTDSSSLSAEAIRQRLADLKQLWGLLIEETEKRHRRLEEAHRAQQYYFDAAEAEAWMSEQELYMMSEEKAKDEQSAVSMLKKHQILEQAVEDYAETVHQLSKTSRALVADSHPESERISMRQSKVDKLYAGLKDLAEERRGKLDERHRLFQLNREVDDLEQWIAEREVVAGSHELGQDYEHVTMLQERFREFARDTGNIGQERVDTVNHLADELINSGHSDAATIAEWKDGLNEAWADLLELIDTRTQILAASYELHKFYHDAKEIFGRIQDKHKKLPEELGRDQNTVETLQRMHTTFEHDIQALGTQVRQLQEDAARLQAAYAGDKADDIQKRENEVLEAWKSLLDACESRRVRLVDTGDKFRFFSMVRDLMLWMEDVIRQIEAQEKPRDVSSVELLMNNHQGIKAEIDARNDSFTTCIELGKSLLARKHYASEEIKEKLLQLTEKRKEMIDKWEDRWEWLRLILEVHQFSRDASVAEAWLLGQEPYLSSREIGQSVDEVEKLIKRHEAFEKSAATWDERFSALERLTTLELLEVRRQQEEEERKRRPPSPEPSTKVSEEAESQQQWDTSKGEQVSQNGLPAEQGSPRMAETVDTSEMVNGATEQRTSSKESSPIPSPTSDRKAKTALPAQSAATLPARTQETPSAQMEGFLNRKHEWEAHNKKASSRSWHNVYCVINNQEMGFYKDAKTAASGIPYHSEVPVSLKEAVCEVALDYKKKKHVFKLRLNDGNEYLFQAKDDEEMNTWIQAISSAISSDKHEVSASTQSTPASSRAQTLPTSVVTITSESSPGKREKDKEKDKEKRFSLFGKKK

[15] = target: proteins of HEK293T cells transiently overexpressing caspase-6 (Homo sapiens, UniProt Q14444); conditions: exp_ref Probe; protein CAPRIN1 (Q14444); analysis C6
[16] = target: proteins of HEK293T cells transiently overexpressing caspase-6 (Homo sapiens, UniProt Q96AE4); conditions: Probe; protein FUBP1 Q96AE4
[17] = target: proteins of HEK293T cells transiently overexpressing caspase-6 (Homo sapiens, UniProt Q96K37); conditions: protein SLC35E1 (Q96K37); exp_ref Probe; analysis C6
[18] = target: proteins of HEK293T cells transiently overexpressing caspase-6 (Homo sapiens, UniProt Q9NVX2); conditions: Probe; protein NLE1 Q9NVX2
[19] = target: proteins of HEK293T cells transiently overexpressing caspase-6 (Homo sapiens, UniProt Q9UJU6); conditions: Probe; protein DBNL Q9UJU6
[20] = target: proteins of HEK293T cells transiently overexpressing caspase-6 (Homo sapiens, UniProt Q9UQE7); conditions: protein SMC3 (Q9UQE7), analysis C6
proteins of HEK293T cells transiently overexpressing caspase-6 (Homo sapiens, UniProt Q9UQE7), sequence (Q9UQE7 whole entry): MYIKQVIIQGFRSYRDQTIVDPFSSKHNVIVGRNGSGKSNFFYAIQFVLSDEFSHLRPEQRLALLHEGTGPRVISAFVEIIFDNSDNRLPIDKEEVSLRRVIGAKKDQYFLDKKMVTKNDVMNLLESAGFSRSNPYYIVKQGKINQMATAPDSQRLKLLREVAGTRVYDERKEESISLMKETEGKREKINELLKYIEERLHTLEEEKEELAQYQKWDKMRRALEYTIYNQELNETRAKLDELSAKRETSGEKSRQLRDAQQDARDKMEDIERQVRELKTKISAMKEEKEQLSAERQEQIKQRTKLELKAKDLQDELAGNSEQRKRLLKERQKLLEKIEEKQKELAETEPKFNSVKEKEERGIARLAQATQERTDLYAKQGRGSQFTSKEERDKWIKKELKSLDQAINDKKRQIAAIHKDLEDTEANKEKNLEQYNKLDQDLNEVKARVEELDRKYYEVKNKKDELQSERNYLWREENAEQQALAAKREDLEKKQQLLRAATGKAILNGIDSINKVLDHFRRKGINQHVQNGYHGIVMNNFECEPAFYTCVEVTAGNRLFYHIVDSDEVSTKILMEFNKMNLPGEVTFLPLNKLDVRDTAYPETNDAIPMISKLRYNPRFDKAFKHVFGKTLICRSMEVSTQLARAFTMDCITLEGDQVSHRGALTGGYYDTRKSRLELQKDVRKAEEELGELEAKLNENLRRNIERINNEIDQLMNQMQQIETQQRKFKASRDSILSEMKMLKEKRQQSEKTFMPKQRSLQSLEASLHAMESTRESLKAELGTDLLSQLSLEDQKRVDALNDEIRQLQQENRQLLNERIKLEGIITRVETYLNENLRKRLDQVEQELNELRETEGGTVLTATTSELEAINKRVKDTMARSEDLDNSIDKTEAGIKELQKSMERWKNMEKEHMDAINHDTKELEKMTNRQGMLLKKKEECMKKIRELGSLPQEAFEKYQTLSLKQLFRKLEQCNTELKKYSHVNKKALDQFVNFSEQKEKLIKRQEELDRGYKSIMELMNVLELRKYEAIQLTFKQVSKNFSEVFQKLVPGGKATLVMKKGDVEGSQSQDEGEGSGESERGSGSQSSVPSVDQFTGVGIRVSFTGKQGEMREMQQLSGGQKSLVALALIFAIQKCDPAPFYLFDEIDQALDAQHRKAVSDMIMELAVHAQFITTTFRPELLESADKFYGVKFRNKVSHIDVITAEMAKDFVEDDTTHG

[21] = target: proteins of HEK293T cells transiently overexpressing caspase-6 (Homo sapiens, UniProt Q9Y490); conditions: exp_ref Probe; protein TLN1 (Q9Y490); analysis C6
[22] = target: proteins of HEK293T cells transiently overexpressing caspase-6 (Homo sapiens, UniProt Q9Y6C9); conditions: protein MTCH2 (Q9Y6C9); exp_ref Probe; analysis C6

SMILES: C#CCOc1ccc([C@@H]2C[C@@H](C(=O)Nc3ccc(OC(F)(F)F)cc3)CN(S(=O)(=O)C=C)C2)cc1 (relative stereo) [13-t]
- enrich.exp.med ([1]; Probe, protein GOT2 P00505): -0.8861
- enrich.exp.med.lin ([1]; protein GOT2 (P00505)): 0.5411
- enrich.exp.med.log2 ([1]; protein GOT2 (P00505)): -0.8861
- enrich.exp.med ([2]; exp_ref Probe, analysis C6): 0.5104
- enrich.exp.med.lin [2]: 1.424
- enrich.exp.med.log2 [2]: 0.5104
- enrich.exp.med [3]: 0.7182
- enrich.exp.med ([4]; exp_ref Probe, analysis C6): 0.8127
- enrich.exp.med.lin [4]: 1.757
- enrich.exp.med.log2 [4]: 0.8127
- enrich.exp.med [5]: -0.2652
- enrich.exp.med [6]: -0.1466
- enrich.exp.med [7]: 1.006
- enrich.exp.med [8]: -1.23
- enrich.exp.med [9]: 0.2226
- enrich.exp.med.lin [10]: 3.054
- enrich.exp.med.log2 [10]: 1.611
- enrich.exp.med ([10]; exp_ref Probe, analysis C6): 1.611
- enrich.exp.med [11]: -0.4498
- enrich.exp.med ([12]; exp_ref Probe, analysis C6): 0.3594
- enrich.exp.med.lin [12]: 1.283
- enrich.exp.med.log2 [12]: 0.3594
- enrich.exp.med.lin [13]: 12.9915
- enrich.exp.med.log2 [13]: 3.6995
- enrich.exp.med.lin ([13]; Expt Probe, analysis C6): 12.9915
- enrich.exp.med.log2 ([13]; Expt Probe, analysis C6): 3.6995
- enrich.exp.med ([13]; exp_ref Probe, analysis C6): 3.6995
- enrich.exp.med [14]: -1.031
- enrich.exp.med [15]: 0.06778
- enrich.exp.med [16]: -1.073
- enrich.exp.med [17]: 1.71
- enrich.exp.med [18]: -1.769
- enrich.exp.med [19]: -0.5155
- enrich.exp.med.lin ([20]; Expt Probe): 14.5893
- enrich.exp.med.log2 ([20]; Expt Probe): 3.867
- enrich.exp.med ([20]; exp_ref Probe): 3.867
- enrich.exp.med [21]: 0.6042
- enrich.exp.med [22]: 1.32
